pIC50: −log10 of the molar value. Like-named read-outs stand apart in the source and are kept apart here.

In one test the test system is #11. Nature of the test: cells. Also on record: species or system primary ALL patient cells; 3H-thymidine incorporation proliferation assay in primary ALL patient cells. The conditions noted are these: 48 h. Here is the method:
(§1) Synthesis details of YKL-06-101 and JH-XI-10-02 are provided in Supplementary Notes 1 and 2. Proliferation of degrader-exposed human leukemic cell lines and primary ALL patient cells were examined by measuring 3H-thymidine uptake after 48 h. For immunoblottings and FACS analysis, cells were incubated with the indicated concentrations of the degraders up to 96 h.  Fig. 7 Chemical CDK8 degradation cooperates with mTOR inhibition. a Co-expression matrix of CDK8 and members of mTOR/PI3K signaling pathways in samples of 203 pediatric ALL patients (TARGET cohort, RNA-seq) and b 179 AML patients (TCGA AML cohort, RNA-seq). […] DMSO was used as vehicle control (D: DMSO, n = 3). Immunoblots show mTOR, CDK8, and pS6 after incubation of f REH cells or g Z119 cells with 0.5 µM and 1 µM of JH-XI-10-02 or YKL-06-101 for 48, 72, and 96 h. DMSO (indicated as D) was used as vehicle control and β-actin served as loading control. h AnnexinV/7AAD staining of Z119 cells incubated with 0.5 µM and 1 µM of JH-XI-10-02 or YKL-06-101 for 72 and 96 h. DMSO was used as a vehicle control (D: DMSO, n = 3). i AnnexinV/7AAD staining of Z119 cells incubated with Torin1, JH-XI-10-02, or both in combination with indicated concentrations for 72 and 96 h. DMSO (indicated as D) was used as a vehicle control. One representative experiment out of three is depicted. j Bar diagram depicts relative thymidine incorporation of six primary B-ALL patient samples incubated for 48 h with 1 μM of YKL-06-101. Patient #1 represents a non-responder, patient #4 was BCR-ABL1^+ (Ph^+), whereas the others were BCR-ABL1^− (Ph^−). Levels of significance were calculated using Kruskal–Wallis test followed by Dunn’s test, data represents means ± SD (*p < 0.05, **p < 0.01). Source data are provided as a Source Data file

For the next test, the system named is #12. Description: cells. Also on record: species or system primary ALL patient cells; 3H-thymidine incorporation proliferation assay in primary ALL patient cells. The conditions noted are these: 48 h. Here is the method: as §1
The test system of the next test is #13. Description: cells. Also on record: species or system primary ALL patient cells; 3H-thymidine incorporation proliferation assay in primary ALL patient cells. The conditions noted are these: 48 h. Here is the method:
as §1

The test system of another test is #14. Description: cells. Also on record: species or system primary ALL patient cells; 3H-thymidine incorporation proliferation assay in primary ALL patient cells. The conditions noted are these: 48 h. Here is the method:
as §1

Another test concerns #15. Nature of the test: cells. More on the design: species or system primary ALL patient cells; 3H-thymidine incorporation proliferation assay in primary ALL patient cells. To be noted: 48 h. How it is done: as §1
In a further test the test system is #1. Description: cells. More on the design: species or system primary ALL patient cells; 3H-thymidine incorporation proliferation assay in primary ALL patient cells. To be noted: 48 h. Here is the method: as §1
The next test concerns #3. Nature of the test: cells. The conditions noted are these: 48 h. Also on record: species or system primary ALL patient cells; 3H-thymidine incorporation proliferation assay in primary ALL patient cells. How it is done:
as §1

The subject of another test is #4. Description: cells. More on the design: species or system primary ALL patient cells; 3H-thymidine incorporation proliferation assay in primary ALL patient cells. The conditions noted are these: 48 h. Here is the method:
as §1

The subject of a further test is #6. Nature of the test: cells. Also on record: species or system primary ALL patient cells; 3H-thymidine incorporation proliferation assay in primary ALL patient cells. The conditions noted are these: 48 h. Here is the method:
as §1

Another test concerns #7. Nature of the test: cells. Also on record: species or system primary ALL patient cells; 3H-thymidine incorporation proliferation assay in primary ALL patient cells. To be noted: 48 h. How it is done:
as §1

The next test deals with #8. Nature of the test: cells. The conditions noted are these: 48 h. More on the design: species or system primary ALL patient cells; 3H-thymidine incorporation proliferation assay in primary ALL patient cells. Here is the method: as §1
The next test relates to #9. Nature of the test: cells. Also on record: species or system primary ALL patient cells; 3H-thymidine incorporation proliferation assay in primary ALL patient cells. To be noted: 48 h. Here is the method:
as §1

The next test deals with CDK8 (Homo sapiens, UniProt P49336). Description: CDK8 kinase inhibition IC50 (assay not detailed in main text). Format: biochemical.
Sequence of CDK8 (P49336 whole entry): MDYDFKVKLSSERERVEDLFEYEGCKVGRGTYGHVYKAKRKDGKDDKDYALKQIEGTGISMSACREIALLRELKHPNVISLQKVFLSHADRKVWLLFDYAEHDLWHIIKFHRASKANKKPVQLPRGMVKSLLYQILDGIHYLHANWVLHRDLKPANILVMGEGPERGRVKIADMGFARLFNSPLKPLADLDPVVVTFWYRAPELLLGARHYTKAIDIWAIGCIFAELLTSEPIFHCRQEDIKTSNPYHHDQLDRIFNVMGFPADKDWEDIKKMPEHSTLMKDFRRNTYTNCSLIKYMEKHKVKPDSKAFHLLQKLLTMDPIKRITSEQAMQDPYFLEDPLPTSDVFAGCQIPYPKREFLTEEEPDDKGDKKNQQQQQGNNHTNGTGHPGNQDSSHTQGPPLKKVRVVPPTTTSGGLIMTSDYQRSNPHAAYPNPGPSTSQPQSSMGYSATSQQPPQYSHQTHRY

For `CN(C(=O)CCOCCOCCOCCOCCNc1cccc2c1C(=O)N(C1CCC(=O)NC1=O)C2=O)[C@H]1CC[C@@]2(C)[C@@H](CC[C@@H]3[C@@H]2CC[C@]2(C)[C@@H](c4ccc5ccncc5c4)CC[C@@H]32)C1` (stereo partly shown) [JH-XI-10-02], the pIC50 in the test on #11 (read-out: JH-XI-10-02 IC50), in the test with #12 (read-out: JH-XI-10-02 IC50), with #13 (read-out: JH-XI-10-02 IC50), with #14 (read-out: JH-XI-10-02 IC50), in the test on #15 (read-out: JH-XI-10-02 IC50) and in the test on #1 (read-out: JH-XI-10-02 IC50) was under 5.00 each time. Besides, the pIC50 in the test on #3 (read-out: JH-XI-10-02 IC50), in the test with #4 (read-out: JH-XI-10-02 IC50), in the test with #6 (read-out: JH-XI-10-02 IC50), with #7 (read-out: JH-XI-10-02 IC50), with #8 (read-out: JH-XI-10-02 IC50) and in the test on #9 (read-out: JH-XI-10-02 IC50) was under 5.00 throughout.
`O=C1CCC(N2C(=O)c3cccc(NCCOCCOCCOCCOCCOCCC(=O)N4CCN(c5ccc(-n6c(=O)ccc7cnc8ccc(-c9ccc%10ccncc%10c9)cc8c76)cc5C(F)(F)F)CC4)c3C2=O)C(=O)N1` (stereo not shown) [YKL-06-101]: the pIC50 (in general, −log10 of the IC50, conventionally taken in molar units) with #11 (read-out: YKL-06-101 IC50) was 6.40; with #12 (read-out: YKL-06-101 IC50), under 5.00; in the test with #13 (read-out: YKL-06-101 IC50), 6.52; in the test with #14 (read-out: YKL-06-101 IC50), under 5.00; with #15 (read-out: YKL-06-101 IC50), 5.00; in the test on #1 (read-out: YKL-06-101 IC50), under 5.00. Besides, the pIC50 in the test on #3 (read-out: YKL-06-101 IC50) was 6.05; with #4 (read-out: YKL-06-101 IC50), under 5.00; with #6 (read-out: YKL-06-101 IC50) it was 7.00; in the test on #7 (read-out: YKL-06-101 IC50) it was under 5.00; with #8 (read-out: YKL-06-101 IC50), under 5.00; in the test with #9 (read-out: YKL-06-101 IC50) it was 5.05.
THZ4-55 gave a pIC50 against CDK8 of 8.30.

(Values after paper PMC6802219, “A kinase-independent role for CDK8 in BCR-ABL1^+ leukemia” (Nature Communications, 2019).)
